SMILES strings stand for the structures.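 Cultured in 96-well plates, cells were exposed to test compound for 48 hours across five concentrations. At the GI50, growth is halved. TGI is the concentration that stops growth completely.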

The text below walks through data of PubChem BioAssay (NCI).

Assay in all cases: DTP human tumour cell line panel, 48 h
The test system of assay [1] is A549 NSCLC.
The subject of assay [2] is HCT-116 colon.
Assay [3] deals with HOP-62 NSCLC.
The test system of assay [4] is MDA-MB-435.
For assay [5], the system named is RXF 393 renal.
Assay [6] has as its system SF-295 CNS.
Assay [7] concerns SK-OV-3 ovarian.
Assay [8] deals with SNB-75 CNS.
In assay [9] the test system is T-47D breast.
In assay [10] the test system is UACC-62 melanoma.

In the case of `CC(C)(C)c1cc(C(=O)/C=C/c2ccc(C(=O)O)cc2)cc(C(C)(C)C)c1`, the total growth inhibition concentration (TGI) was found to be 13.4 µM in [1]; 10.4 µM in assay [2]; 6.49 µM in [3]; 6.66 µM in [4]; 4.34 µM in assay [5]; 7.29 µM in assay [6]. Also, the TGI in assay [7] turned out to be 12.5 µM; in assay [8] it was 15 µM; in assay [9], 19.8 µM; in [10] it was 4.67 µM.

As for `CC(=O)NC1CONC1=O` (centres undefined), the total growth inhibition concentration (TGI) in assay [1], in assay [2], in [3], in [4], in assay [5] and in assay [6] was above 100 µM each time. The TGI in assay [7], in [8], in assay [9] and in assay [10] was above 100 µM in each case.

Take `CN1C(NNC(=O)c2cccnc2)=NS(=O)(=O)c2cc(Cl)ccc21`: the GI50 in [1], in assay [2], in [3], in [4], in [5] and in assay [6] was above 100 µM throughout. In addition, the GI50 in [7], in assay [8], in assay [9] and in assay [10] was above 100 µM throughout. Also, the TGI in [1], in assay [2], in assay [3], in [4], in assay [5] and in assay [6] was above 100 µM each time. The TGI in assay [7], in assay [8], in [9] and in [10] was above 100 µM throughout.

In the case of `CC(Cl)CN1c2ccccc2Sc2ccc(Cl)cc21` (centres undefined), the TGI in assay [1], in [2], in assay [3], in assay [4], in assay [5] and in assay [6] was above 10 µM in each case. Further, the total growth inhibition concentration (TGI) in [7], in assay [8], in assay [9] and in [10] was above 10 µM in each case.

On to `NCCCn1c2c(c3ccccc3c1=O)C(=O)c1ccccc1-2`, for which the 50% growth inhibitory concentration (GI50) was 0.0597 µM in assay [1]; 0.259 µM in [2]; 0.0875 µM in assay [3]; 0.7 µM in assay [4]; 1.22 µM in assay [5]; 0.0709 µM in assay [6]. For the same compound, the concentration for 50% growth inhibition (GI50) in [7] is 0.133 µM; in assay [8] it was 0.539 µM; in assay [9], 0.162 µM; in assay [10] it was 0.247 µM. Besides, the TGI in assay [1] came out at 0.815 µM; in assay [3] it was 0.64 µM; in assay [4], 3.07 µM; in assay [5], 6.68 µM; in assay [6], 0.55 µM; in [7] it was 1.94 µM. For the same compound, the total growth inhibition concentration (TGI) in assay [8] worked out at 3.71 µM; in assay [9] it was 0.951 µM; in assay [10], 2.69 µM.
